The results in this text go back to patent US20230136075A1, “TREATMENT FOR SEPSIS-INDUCED ORGAN DYSFUNCTION” (The Florey Institute of Neuroscience and Mental Health, priority 2020, published 2023).

The test system of the series is ovine sepsis induced by intravenous infusion of live E. coli. From the text:
Using this model, the inventors have investigated the effect of mega dose intravenous vitamin C therapy on various parameters indicative of the progression of sepsis in sheep (Merino ewes, 35-45 kg; 1.5-2.0 years old). Sheep were divided into two groups, a vitamin C (sodium ascorbate) therapy group and a vehicle group as a control. Experimental protocols were approved by the Animal Ethics Committee of the Florey Institute of Neuroscience and Mental Health under guidelines of the National Health and Medical Research Council of Australia.
Preparatory surgical procedures were carried out as described in Lankadeva et al. (2018b). Briefly, two preparatory surgical procedures were performed under general anaesthesia. First, a carotid artery was exteriorised into a skin fold to form a carotid arterial loop to facilitate cannulation for measurement of arterial pressure and heart rate, and for blood sampling. During the same surgical procedure, a flow probe was placed around the pulmonary artery to measure cardiac output. Animals were allowed 3-4 weeks of recovery. Second, a flow probe was implanted around a renal artery to measure renal blood flow, a renal vein was cannulated for blood sampling and fibre optic probes were inserted into the renal cortex, renal medulla (within kidneys) and parietal cortex (brain) to measure tissue perfusion, oxygen tension and temperature.
During the second surgical procedure cannulae were implanted in the carotid artery for arterial pressure measurement and blood sampling and the jugular vein for infusion of fluids, vasopressors, Escherichia coli, sodium ascorbate and blood sampling, and a Foley catheter was inserted into the bladder to collect urine and monitor hourly urine output.
Following three days of recovery from the second surgical procedure, the experimental protocol (see FIG. 1) was initiated in conscious sheep, to avoid the confounding effects of general anaesthesia. Animals daily food and water intake and urine output was measured on a 24-hour basis during the course of the 5-day protocol.
First, a 24-hour baseline period was commenced, which included measurement of systemic haemodynamics, renal and brain perfusion and oxygenation, arterial, central venous and renal venous blood gases and lactate, and urine output. Arterial blood and urine samples were collected at set times during the experimental period.
After establishment of the 24-hour baseline period, gram-negative sepsis was induced by intravenous infusion of live E. coli (isolated from a patient with sepsis at Austin Health) as described in Lankadeva et al. (2018b), administered as a loading (bolus) infusion of 2.8×10^9 colony-forming units (CFU) over 30-minutes followed by a continuous infusion of 1.26×10^9 CFU/h for 30.5 hours. No prophylactic antibiotics, sedative or analgesic agents were administered during this protocol. The description in the following paragraphs is with reference to the protocol as shown schematically in FIG. 1.
At 23 hours of sepsis, when sheep had fulfilled the clinical criteria for sepsis (i.e. established hypotension, tachycardia, fever, lung injury, tachypnoea, hyperlactatemia and stage 1-2 acute kidney injury) animals were resuscitated with 30 mL/kg balanced crystalloid sodium lactate (Hartmann's solution infused at approximately 2500 ml/hr) for 30 mins, from 23-23.5 hours of sepsis.
A blocked randomization design was used to allocate sheep to treatment with sodium ascorbate or vehicle.

[1] abbreviates: NaHCO3 infusion, two septic sheep.
Where [2] appears, read: during the infusion of NaHCO3, two septic sheep.

Structures are written as SMILES.

For the compound `O=C([O-])O.[Na+]` [NaHCO3, sodium bicarbonate], under setting [1], the MAP entry is “decreased”, the RBF entry was “not reduced”, the “arterial PO2” value is “no improvement” and the “blood pH” value is “large increase”. Besides, under setting [1], the blood potassium result is given as “hypokalemia”, the blood sodium result was “hypernatremia”, the creatinine clearance entry is listed as “no reduction in plasma creatinine or increase in creatinine clearance was observed” and the heart rate entry is given as “not reduced”. Under setting [1], the norepinephrine dose required entry was “increasing doses of norepinephrine were required”, the plasma creatinine result is listed as “no reduction”, the “renal medullary PO2” value is recorded as “no improvement” and the renal medullary perfusion entry is “no improvement”. The urine flow result under setting [1] is given as “urine flow increased”. Further, under setting [2], the body temperature entry is listed as “large increases” and the shivering result is reported as “intermittent shivering”. For the same compound, the “reproduction of the effects of sodium ascorbate” value (hypertonic NaHCO3, equal sodium load, 8.4 g/kg over 30 minutes then 8.4 g/kg/hr for 6.5 hours, two septic sheep, data not shown) was “did not reproduce the effects of sodium ascorbate”.
